The values that follow come from ChEMBL document CHEMBL5325437, “Shifting the selectivity of pyrido[2,3-d]pyrimidin-7(8H)-one inhibitors towards the salt-inducible kinase (SIK) subfamily” (Eur J Med Chem, 2023).

The source made the active and inactive calls. The rule behind the calls is not given here.

In series [1] the target is T1, Serine/threonine-protein kinase 3 (Homo sapiens) (UniProt Q13188).
T1 sequence (whole entry): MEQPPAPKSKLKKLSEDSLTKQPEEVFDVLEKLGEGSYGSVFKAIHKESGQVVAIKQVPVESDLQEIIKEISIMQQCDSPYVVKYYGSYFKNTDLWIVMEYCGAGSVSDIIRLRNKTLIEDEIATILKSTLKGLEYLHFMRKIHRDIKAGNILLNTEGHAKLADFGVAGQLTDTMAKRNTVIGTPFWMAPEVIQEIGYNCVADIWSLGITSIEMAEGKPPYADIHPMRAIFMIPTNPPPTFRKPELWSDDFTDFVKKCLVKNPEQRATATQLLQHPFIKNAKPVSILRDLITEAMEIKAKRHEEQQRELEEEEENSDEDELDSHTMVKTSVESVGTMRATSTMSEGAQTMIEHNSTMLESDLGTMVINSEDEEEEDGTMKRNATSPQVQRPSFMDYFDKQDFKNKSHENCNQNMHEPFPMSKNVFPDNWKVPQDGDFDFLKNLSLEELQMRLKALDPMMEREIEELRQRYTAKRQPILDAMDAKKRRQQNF
The experiment in a line: Binding affinity to recombinant MST2 (unknown origin) assessed as stabilization by measuring change in melting temperature at 10 uM by SYPRO orange dye based differential scanning fluorimetry assay.

For series [2], the target named is Serine/threonine-protein kinase 24 (Homo sapiens) (UniProt Q9Y6E0). Kind of series: Binding affinity to recombinant MST3 (unknown origin) assessed as stabilization by measuring change in melting temperature at 10 uM by SYPRO orange dye based differential scanning fluorimetry assay. A general note: Differential scanning fluorimetry follows unfolding on heating by fluorescence.
Sequence of Serine/threonine-protein kinase 24 (Homo sapiens) (Q9Y6E0 whole entry, looked up): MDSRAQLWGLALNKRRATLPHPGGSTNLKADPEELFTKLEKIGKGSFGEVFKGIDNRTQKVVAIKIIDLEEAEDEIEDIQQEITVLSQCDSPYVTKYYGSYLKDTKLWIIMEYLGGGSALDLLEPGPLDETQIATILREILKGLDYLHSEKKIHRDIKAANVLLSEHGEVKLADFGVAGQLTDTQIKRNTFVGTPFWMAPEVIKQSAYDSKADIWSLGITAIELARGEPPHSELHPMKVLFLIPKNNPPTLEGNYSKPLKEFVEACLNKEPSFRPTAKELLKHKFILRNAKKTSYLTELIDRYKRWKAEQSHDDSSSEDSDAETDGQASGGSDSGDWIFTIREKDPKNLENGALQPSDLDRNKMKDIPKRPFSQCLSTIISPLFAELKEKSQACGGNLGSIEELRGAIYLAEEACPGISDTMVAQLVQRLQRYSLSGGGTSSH

Series [3] has as its target Serine/threonine-protein kinase 26 (Homo sapiens) (UniProt Q9P289). The experiment in a line: Binding affinity to recombinant MST4 (unknown origin) assessed as stabilization by measuring change in melting temperature at 10 uM by SYPRO orange dye based differential scanning fluorimetry assay.
Series [4] has as its target T2, Serine/threonine-protein kinase 4 (Homo sapiens) (UniProt Q13043).
T2 sequence (whole entry): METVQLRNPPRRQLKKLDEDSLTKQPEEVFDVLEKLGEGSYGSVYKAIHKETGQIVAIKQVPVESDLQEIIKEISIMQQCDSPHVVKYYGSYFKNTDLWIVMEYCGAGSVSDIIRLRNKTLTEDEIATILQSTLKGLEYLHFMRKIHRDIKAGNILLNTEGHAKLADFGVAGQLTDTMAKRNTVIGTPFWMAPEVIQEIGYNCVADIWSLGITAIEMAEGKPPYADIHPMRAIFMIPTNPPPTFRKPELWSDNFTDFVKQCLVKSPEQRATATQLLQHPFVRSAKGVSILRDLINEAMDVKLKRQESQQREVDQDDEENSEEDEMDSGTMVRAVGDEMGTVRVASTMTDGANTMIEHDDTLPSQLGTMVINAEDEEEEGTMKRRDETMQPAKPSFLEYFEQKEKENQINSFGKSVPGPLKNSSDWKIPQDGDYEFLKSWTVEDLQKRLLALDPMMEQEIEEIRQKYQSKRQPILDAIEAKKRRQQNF
Kind of series: Binding affinity to recombinant MST1 (unknown origin) assessed as stabilization by measuring change in melting temperature at 10 uM by SYPRO orange dye based differential scanning fluorimetry assay.

The target in series [5] is Serine/threonine-protein kinase PAK 1 (Homo sapiens) (UniProt Q13153). The experiment in a line: Binding affinity to recombinant PAK1 (unknown origin) assessed as stabilization by measuring change in melting temperature at 10 uM by SYPRO orange dye based differential scanning fluorimetry assay.
Sequence of Serine/threonine-protein kinase PAK 1 (Homo sapiens) (Q13153 whole entry): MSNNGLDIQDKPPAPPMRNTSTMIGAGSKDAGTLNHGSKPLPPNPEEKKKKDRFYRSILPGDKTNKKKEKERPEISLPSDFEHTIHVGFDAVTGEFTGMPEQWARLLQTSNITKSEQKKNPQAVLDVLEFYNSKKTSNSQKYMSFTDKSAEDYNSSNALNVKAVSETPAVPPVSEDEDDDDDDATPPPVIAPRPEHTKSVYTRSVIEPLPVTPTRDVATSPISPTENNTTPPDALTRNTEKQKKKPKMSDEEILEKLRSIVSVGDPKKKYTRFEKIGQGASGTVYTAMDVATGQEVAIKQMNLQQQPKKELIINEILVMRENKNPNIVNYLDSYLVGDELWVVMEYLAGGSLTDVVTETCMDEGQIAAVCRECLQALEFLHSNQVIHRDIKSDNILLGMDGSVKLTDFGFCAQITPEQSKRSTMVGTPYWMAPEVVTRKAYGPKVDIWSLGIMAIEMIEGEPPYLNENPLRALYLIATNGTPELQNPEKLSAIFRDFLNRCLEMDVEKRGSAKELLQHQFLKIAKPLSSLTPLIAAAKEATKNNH
Series [6] has as its target Mitogen-activated protein kinase kinase kinase 20 (Homo sapiens, UniProt Q9NYL2). Kind of series: Inhibition of full-length human ZAK using MBP as substrate in presence off ATP by competitive binding assay.
Series [7] deals with Serine/threonine-protein kinase SIK1 (Homo sapiens, UniProt P57059). Kind of series: Inhibition of full length NanoLuc fused SIK1 (unknown origin) transfected in HEK293T cells using NanoBRET NanoGlo substrate incubated for 2 hrs in presence of tracer by NanoBRET assay. The series is classed as cell-based.
Sequence of Serine/threonine-protein kinase SIK1 (P57059 whole entry, the tested form may be a part): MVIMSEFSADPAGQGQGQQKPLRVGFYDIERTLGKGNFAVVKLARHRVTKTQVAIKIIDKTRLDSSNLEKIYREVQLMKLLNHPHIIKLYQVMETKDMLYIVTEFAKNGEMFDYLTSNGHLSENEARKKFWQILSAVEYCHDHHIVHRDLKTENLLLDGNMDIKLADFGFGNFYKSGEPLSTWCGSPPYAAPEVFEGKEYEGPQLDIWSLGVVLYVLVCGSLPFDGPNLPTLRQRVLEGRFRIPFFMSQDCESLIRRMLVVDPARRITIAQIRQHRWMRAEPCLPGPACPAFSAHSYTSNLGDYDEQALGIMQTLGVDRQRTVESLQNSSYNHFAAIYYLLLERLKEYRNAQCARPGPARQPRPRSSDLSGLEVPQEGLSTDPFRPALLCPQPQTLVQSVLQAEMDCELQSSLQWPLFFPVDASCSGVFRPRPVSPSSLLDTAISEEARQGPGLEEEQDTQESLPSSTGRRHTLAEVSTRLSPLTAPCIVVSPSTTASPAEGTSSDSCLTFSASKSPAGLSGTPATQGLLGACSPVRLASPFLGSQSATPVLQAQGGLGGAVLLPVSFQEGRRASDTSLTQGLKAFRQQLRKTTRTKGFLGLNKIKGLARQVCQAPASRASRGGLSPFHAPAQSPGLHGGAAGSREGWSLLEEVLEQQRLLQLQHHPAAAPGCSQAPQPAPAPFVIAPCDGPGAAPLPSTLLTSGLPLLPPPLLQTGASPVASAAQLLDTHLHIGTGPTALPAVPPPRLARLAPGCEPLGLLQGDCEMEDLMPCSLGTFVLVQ
Series [8] concerns the target Serine/threonine-protein kinase SIK2 (Homo sapiens) (UniProt Q9H0K1). Kind of series: Inhibition of recombinant human GST-tagged SIK2 assessed as downregulation of SIK2 phosphorylation at Ser358 incubated for 30 mins by Western blotting analysis. (In general: A western blot detects proteins with antibodies after separation by electrophoresis.)
For series [9], the system named is HCT-116. The experiment in a line: Cytotoxicity against human HCT-116 cells assessed as decrease in cell viability at 10 uM incubated for 24 hrs by Hoechst-33342 staining high-content imaging analysis. The series is classed as toxicity, cell-based. Particulars: hct-116, 24 h.
In series [10] the test system is HCT-116. Kind of series: Cytotoxicity against human HCT-116 cells assessed as effect on cell viability at 1 uM incubated for 80 hrs by Hoechst-33342 staining high-content imaging analysis. To be noted: hct-116, 80 h. The series is classed as toxicity, cell-based.
The test system of series [11] is SK-OV-3. Kind of series: Induction of cell cycle arrest in human SK-OV-3 cells assessed as accumulation of cells at G2 phase at 5 uM incubated for 24 hrs by flow cytometry (reference value: 24%). The format is functional. For orientation: In flow cytometry, cells or beads pass a laser one at a time.
The subject of series [12] is SK-OV-3. Kind of series: Induction of cell cycle arrest in human SK-OV-3 cells assessed as accumulation of cells at S phase at 5 uM incubated for 24 hrs by flow cytometry (reference value: 32%). The format is functional.
Series [13] concerns SK-OV-3. Kind of series: Induction of cell cycle arrest in human SK-OV-3 cells assessed as accumulation of cells at G1 phase at 5 uM incubated for 24 hrs by flow cytometry (reference value: 34%). The format is functional.
Series [14] deals with Serine/threonine-protein kinase SIK2 (Homo sapiens) (UniProt Q9H0K1). Kind of series: Inhibition of recombinant human GST-tagged SIK2 assessed as downregulation of SIK2 phosphorylation at Ser358 a 5 uM incubated for 30 mins by Western blotting analysis.
Sequence of Serine/threonine-protein kinase SIK2 (Homo sapiens) (Q9H0K1 whole entry, looked up): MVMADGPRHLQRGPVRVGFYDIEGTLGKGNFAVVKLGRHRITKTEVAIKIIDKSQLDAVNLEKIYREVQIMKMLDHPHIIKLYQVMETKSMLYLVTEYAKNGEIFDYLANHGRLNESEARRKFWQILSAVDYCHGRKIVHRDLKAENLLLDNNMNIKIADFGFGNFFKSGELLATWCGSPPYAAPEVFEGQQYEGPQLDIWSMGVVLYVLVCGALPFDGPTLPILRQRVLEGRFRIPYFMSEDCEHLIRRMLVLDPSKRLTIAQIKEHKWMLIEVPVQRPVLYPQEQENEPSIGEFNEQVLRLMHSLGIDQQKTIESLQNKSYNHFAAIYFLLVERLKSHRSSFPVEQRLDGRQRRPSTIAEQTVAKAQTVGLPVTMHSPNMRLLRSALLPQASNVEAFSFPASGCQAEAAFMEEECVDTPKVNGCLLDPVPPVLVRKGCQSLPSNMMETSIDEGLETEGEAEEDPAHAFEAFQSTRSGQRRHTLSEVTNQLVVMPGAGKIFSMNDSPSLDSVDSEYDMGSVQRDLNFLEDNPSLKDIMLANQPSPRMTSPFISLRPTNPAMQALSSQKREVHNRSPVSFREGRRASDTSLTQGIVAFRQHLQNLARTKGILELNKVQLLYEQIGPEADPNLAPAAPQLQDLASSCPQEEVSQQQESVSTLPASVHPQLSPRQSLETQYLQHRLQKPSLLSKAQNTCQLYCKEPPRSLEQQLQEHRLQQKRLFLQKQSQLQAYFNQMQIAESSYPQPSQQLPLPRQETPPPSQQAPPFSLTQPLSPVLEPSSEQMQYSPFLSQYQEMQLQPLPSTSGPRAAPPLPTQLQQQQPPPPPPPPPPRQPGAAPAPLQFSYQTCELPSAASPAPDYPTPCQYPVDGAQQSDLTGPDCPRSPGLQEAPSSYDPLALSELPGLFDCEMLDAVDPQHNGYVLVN
Series [15] shares this target. Kind of series: Inhibition of SIK2 in human SK-OV-3 cells assessed as decrease in centrosome dissociation in G2 phase at 5 uM incubated for 48 hrs by immunofluorescence assay. The series is classed as cell-based.
The target is the same in series [16]. The experiment in a line: Inhibition of SIK2 in human SK-OV-3 cells assessed as downregulation of AKT phosphorylation at Ser473 at 5 uM incubated for 48 hrs by Western blotting analysis. The series is classed as cell-based.
The test system of series [17] is HCT-116. The experiment in a line: Cytotoxicity against human HCT-116 cells assessed as reduction in cell count at 1 uM incubated for >60 hrs by Hoechst-33342 staining high-content imaging analysis. The format is toxicity, cell-based. To be noted: hct-116, 60 h.

Sequence of Serine/threonine-protein kinase 26 (Homo sapiens) (Q9P289 2-416 limits assumed): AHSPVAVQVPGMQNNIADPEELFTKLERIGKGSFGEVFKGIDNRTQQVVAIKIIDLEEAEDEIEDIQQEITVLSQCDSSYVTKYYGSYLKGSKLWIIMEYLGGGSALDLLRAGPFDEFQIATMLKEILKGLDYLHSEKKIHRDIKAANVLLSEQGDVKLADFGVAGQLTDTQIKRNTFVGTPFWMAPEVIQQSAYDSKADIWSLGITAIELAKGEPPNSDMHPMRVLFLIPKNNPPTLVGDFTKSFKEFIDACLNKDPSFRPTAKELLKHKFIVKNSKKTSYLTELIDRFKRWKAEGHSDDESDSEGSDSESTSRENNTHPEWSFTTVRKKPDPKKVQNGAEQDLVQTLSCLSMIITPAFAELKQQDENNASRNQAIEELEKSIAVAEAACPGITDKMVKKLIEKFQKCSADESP
Sequence of Mitogen-activated protein kinase kinase kinase 20 (Q9NYL2 whole entry, the tested form may be a part): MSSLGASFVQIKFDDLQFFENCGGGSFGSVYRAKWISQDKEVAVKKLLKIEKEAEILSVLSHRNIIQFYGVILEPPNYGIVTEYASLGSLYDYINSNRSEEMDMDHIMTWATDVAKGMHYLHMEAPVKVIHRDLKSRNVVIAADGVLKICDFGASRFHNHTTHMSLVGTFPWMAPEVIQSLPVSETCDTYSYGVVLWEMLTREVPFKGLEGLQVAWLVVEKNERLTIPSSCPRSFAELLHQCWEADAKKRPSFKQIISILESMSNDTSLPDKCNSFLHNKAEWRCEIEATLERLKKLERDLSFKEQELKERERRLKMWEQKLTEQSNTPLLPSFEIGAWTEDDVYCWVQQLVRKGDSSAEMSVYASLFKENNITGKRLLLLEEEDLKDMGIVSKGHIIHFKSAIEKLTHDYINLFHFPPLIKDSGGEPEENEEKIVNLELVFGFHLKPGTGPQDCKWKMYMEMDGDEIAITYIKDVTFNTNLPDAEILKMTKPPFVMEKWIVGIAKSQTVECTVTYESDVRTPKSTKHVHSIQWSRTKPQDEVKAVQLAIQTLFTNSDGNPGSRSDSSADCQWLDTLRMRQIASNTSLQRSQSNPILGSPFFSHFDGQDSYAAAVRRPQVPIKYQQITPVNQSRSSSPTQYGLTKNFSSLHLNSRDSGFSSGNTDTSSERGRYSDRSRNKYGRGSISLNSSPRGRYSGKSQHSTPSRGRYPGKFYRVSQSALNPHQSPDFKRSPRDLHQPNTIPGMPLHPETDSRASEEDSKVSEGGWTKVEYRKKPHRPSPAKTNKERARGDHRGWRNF

In general, ΔTm refers to the change in melting temperature against a reference sample. With `CNc1ncc2cc(-c3cc(F)c(-c4cccc(C)n4)cc3F)c(=O)n(CCCCN)c2n1`, the ΔTm in [1] was 5.2 °C; in series [2], 9.7 °C; in series [3], 7.6 °C; in series [4], 2.8 °C; in series [5], 3.6 °C.
On to `CNc1ncc2cc(-c3cc(Cl)ccc3Cl)c(=O)n(CCCCN)c2n1`, for which the ΔTm in series [1] amounted to 1.4 °C; in series [2], 1.9 °C; in series [3], 2 °C; in [4], 1.6 °C; in series [5], 0.7 °C.
As a reminder, the IC50 is the concentration at which inhibition is half-maximal. With `CCCS(=O)(=O)Nc1ccc(F)c(C(=O)c2c[nH]c3ncc(-c4ccc(Cl)cc4)cc23)c1F` [VEMURAFENIB], the IC50 in series [6] turned out to be 4 nM.
Regarding `CNc1ncc2cc(-c3cc(Br)ccc3Br)c(=O)n(CCCCN)c2n1`, the ΔTm in series [1] stood at 1.4 °C; in [2] it was 1.9 °C; in series [3], 1.5 °C; in series [4], 1.6 °C; in series [5] it was 0.7 °C.
Regarding `CNc1ncc2cc(-c3cc(C(F)(F)F)ccc3Cl)c(=O)n(CCCCN)c2n1`, the ΔTm in series [1] turned out to be 0.8 °C; in series [2] it was 0.2 °C; in series [3], 0.4 °C; in series [4] it was 0.9 °C; in [5] it was 0.2 °C.
As for `CN[C@@H]1C[C@H]2O[C@@](C)([C@@H]1OC)n1c3ccccc3c3c4c(c5c6ccccc6n2c5c31)C(=O)NC4`, the ΔTm in series [5] was determined as 6.7 °C.
As to `CNc1ncc2cc(-c3ccc(-c4cccc(C)n4)cc3Cl)c(=O)n(C[C@H]3OC[C@H](N)CO3)c2n1`, the thermal shift (ΔTm) in series [2] is 8.5 °C; in [4] it was 4.2 °C. Further, the IC50 in series [7] was found to be 33 nM.
For `CNc1ncc2cc(-c3cc(Br)ccc3Cl)c(=O)n(CCCCN)c2n1`, the ΔTm in series [1] was 2.5 °C; in series [2] it was 2.7 °C; in [3] it was 2.2 °C; in [4] it was 1.9 °C; in series [5], 0 °C.
For the compound `CNc1ncc2cc(-c3ccc(-c4ncccc4F)cc3Cl)c(=O)n(C[C@H]3OC[C@H](N)CO3)c2n1`, the inhibition result in [8] is “Dose-Dependent Effect”. For the same compound, the Activity result in series [9] is reported as “Toxic”; in [10], “Non-Toxic”; in [11], 13%; in [12], 7%; in series [13], 70%. The shift in melting temperature (ΔTm) amounted to 3.5 °C in series [2], 2.7 °C in series [3], 1.8 °C in series [4] and 5.2 °C in series [5]. The inhibition entry in [14], in [15] and in series [16] was “Active” throughout.
For the compound `CNc1ncc2cc(-c3ccccc3Cl)c(=O)n(CCCCN)c2n1`, the inhibition result in series [8] was “Dose-Dependent Effect”. Moreover, the Activity result in series [9] is “Toxic”; in series [17] it was “Toxic”; in series [12] it was 6%; in series [13], 58%. Besides, the thermal shift (ΔTm) in [1] was found to be 2.2 °C; in series [2] it was 3.8 °C; in [3] it was 2.6 °C; in series [4], 1.9 °C; in series [5], 1.1 °C. Also, the inhibition entry in [14], in [15] and in series [16] was “Active” in each case.
For the compound `CNc1ncc2cc(-c3cc(Cl)ccc3Br)c(=O)n(CCCCN)c2n1`, the shift in melting temperature (ΔTm) in [1] was found to be 1.4 °C; in [2] it was 2 °C; in series [3], 1.8 °C; in series [4], 1.5 °C; in series [5] it was 0.6 °C.
Regarding `CNc1ncc2cc(-c3cc(Br)ccc3Cl)c(=O)n(C[C@H]3OC[C@H](N)CO3)c2n1`, the ΔTm in [1] stood at 1.5 °C; in series [2], 0.8 °C; in series [3], 0.6 °C; in series [4] it was 1.7 °C; in [5] it was 0.6 °C.
